{
  "source": "patent US20160201132A1",
  "about": "“GENE EXPRESSION BIOMARKERS OF LAQUINIMOD RESPONSIVENESS” (Teva Pharmaceutical Industries Ltd., priority 2013, published 2016)",
  "test_system": "PBMC of RRMS patients",
  "assay": "Gene expression microarray analysis (HG-U133A-2) of PBMC from RRMS patients treated with LAQ, ancillary study to ALLEGRO",
  "assay_type": "in vivo, human",
  "settings": "for Fold-Change (1.0 vs. 0.0): one month of treatment",
  "excerpt": "The goal of this ancillary study was to characterize gene expression changes and corresponding biological mechanisms induced in PBMC of RRMS patients by LAQ treatment. According to ALLEGRO clinical trial inclusion criteria, 25 patients were randomly assigned to receive LAQ (n=13, age 38.8±2.3 years, female/male ratio: 8/5) or placebo (n=12, age 37.2±3.4 years, female/male ratio: 8/4).\nPeripheral blood samples were obtained from RRMS patients at baseline before start of LAQ treatment or placebo, after 0, 1, 6 and 24 month of treatment (visit 0, 1, 6 and 7 according to ALLEGRO clinical trial protocol correspondently) for gene microarray analysis.\nBriefly, 1) Peripheral blood mononuclear cells (PBMC) were obtained from RRMS patients that participated in ALLEGRO and were treated daily with 0.6 mg LAQ or placebo. PBMC were subjected for gene expression analysis (HU-133A-2-Affymatrix arrays) at baseline and at 1 and 6 months of LAQ treatment; 2) Data was analyzed by Partek Genomics Solution software. Most informative genes (MIGs) were defined as those that differentiated between groups with p<0.01. Gene functional annotation, enrichment and pathway analysis were performed by Ingenuity software. For each time point, genes that changed in placebo group were excluded from further analysis; and 3) Verification of LAQ related mechanism was performed by Western blot.\nPBMC were extracted from 15 ml peripheral blood, separated by Ficoll-Hypaque gradient. Total RNA was extracted using both Trizol (Invitrogen, USA) and Phase-Lock-Gel columns (Eppendorf, Germany) including a DNase digestion step. RNA integrity was assessed by RNA Experion automated electrophoresis system (Bio-Rad Laboratories, Hercules, Calif.).\nProbe synthesis using 3 μg total RNA, hybridization, detection, and scanning was performed according to the standard Affymetrix, Inc. USA protocols; cDNA was synthesized using the Two-Cycle cDNA Synthesis Kit (Affymetrix, Inc., USA), and in-vitro transcription performed with the GeneChip IVT Labeling Kit (Affymetrix, Inc., USA). The biotin-labeled IVT-RNA was hybridized to HG-U133A-2 arrays containing 18,400 gene transcripts, each corresponding to 14,500 well-annotated human genes, washed in a GeneChip Fluidics Station 450 (Hewlett Packard, USA, GeneArray-™ scanner G2500A) and scanned according to the manufacturer's protocol (Affymetrix, Inc., USA).\nData analysis was performed on Partek Genomics Solution software (www.partek.com; Partek Incorporated, St. Louis, Mo.). Expression values were computed from raw CEL files by applying the Robust Multi-Chip Average (RMA) background correction algorithm. RMA correction included: 1) values background correction; 2) quintile normalization; 3) log 2 transformation; and 4) median polish summarization. The ANOVA, Repeated Measures and correlation analysis implicated in Partek software ware applied to evaluate LAQ effects. Most informative genes MIGs were defined as those that differentiated between experimental groups with p<0.01. All p-values were calculated for False Discovery Rate (FDR) multiple test correction at p=0.05.\nAdditionally, significance of individual genes was tested by parametric T-test and non parametric Mann-Whitney test using Bootstrapping approach based on repeated permutations of the data with 5% FDR for multiple testing.\nGene functional annotation, enrichment, and pathway analyses to identify the leading biological pathways that operated under LAQ treatment were performed by Ingenuity Pathways Analysis software (www.ingenuity.com).\nANOVA analysis was used to compare PBMC gene expression after 1, 6 or 24 month of LAQ treatment with baseline gene expression.\nFor each time point inventors performed analysis source of variation in dataset. (FIG. 1). Age, gender and batch effects were considered as confounders regarding LAQ or Placebo related changes. For each time point genes associated with Placebo effect were evaluated and excluded from further analysis. […]",
  "key": {"[1]": {"settings": "1 month of LAQ 0.6 mg/day vs baseline"}, "[2]": {"settings": "6 months of LAQ 0.6 mg/day vs baseline"}, "[3]": {"settings": "1564 FDR genes, combined 6 and 24 months"}},
  "data": [
    {"smiles": "CCN(C(=O)c1c(O)c2c(Cl)cccc2n(C)c1=O)c1ccccc1", "note": "[LAQ, 5-chloro-N-ethyl-4-hydroxy-1-methyl-2-oxo-N-phenyl-1,2-dihydroquinoline-3-carboxamide]", "values": [
      {"measurement": "# of genes p < 0.01 (LAQ related MIGs, ANOVA)", "setting": "[1]", "value": 354},
      {"measurement": "Down regulated genes (LAQ related MIGs)", "setting": "[1]", "value": 348},
      {"measurement": "Up-regulated genes (LAQ related MIGs)", "setting": "[1]", "value": 6},
      {"measurement": "# of genes p < 0.01 (LAQ related MIGs, ANOVA)", "setting": "[2]", "value": 1562},
      {"measurement": "Down regulated genes (LAQ related MIGs)", "setting": "[2]", "value": 1552},
      {"measurement": "Up-regulated genes (LAQ related MIGs)", "setting": "[2]", "value": 10},
      {"measurement": "p, suppression of genes related to the TGFB pathway", "setting": "6 months or longer treatment", "value": "1.9*10^−2"},
      {"measurement": "genes (n), suppression of cell migration function", "setting": "[3]", "value": 233},
      {"measurement": "genes (n), suppression of chemotaxis", "setting": "[3]", "value": 78},
      {"measurement": "p, suppression of cell migration function", "setting": "[3]", "value": "4.5*10^−14"},
      {"measurement": "p, suppression of chemotaxis", "setting": "[3]", "value": "4.3*10^−5"},
      {"measurement": "Fold-Change (1.0 vs. 0.0)", "setting": "202280_at (gene symbol not given)", "value": "−1.157"},
      {"measurement": "Fold-Change (1.0 vs. 0.0)", "setting": "ABLIM3 205730_s_at", "value": "−1.542"},
      {"measurement": "Fold-Change (1.0 vs. 0.0)", "setting": "ALDOB 204704_s_at", "value": "−1.119"},
      {"measurement": "Fold-Change (1.0 vs. 0.0)", "setting": "APBA2 209871_s_at", "value": "−1.163"},
      {"measurement": "Fold-Change (1.0 vs. 0.0)", "setting": "ARHGEF10 215139_at", "value": "−1.176"},
      {"measurement": "Fold-Change (1.0 vs. 0.0)", "setting": "ARMCX6 /// LOC653354 214749_s_at", "value": "−1.178"},
      {"measurement": "Fold-Change (1.0 vs. 0.0)", "setting": "ASAP2 206414_s_at", "value": "−1.773"},
      {"measurement": "Fold-Change (1.0 vs. 0.0)", "setting": "C1orf116 219476_at", "value": "−1.222"},
      {"measurement": "Fold-Change (1.0 vs. 0.0)", "setting": "CA5A 207421_at", "value": "−1.243"},
      {"measurement": "Fold-Change (1.0 vs. 0.0)", "setting": "CALD1 201617_x_at", "value": "−1.326"},
      {"measurement": "Fold-Change (1.0 vs. 0.0)", "setting": "CALD1 212077_at", "value": "−1.896"},
      {"measurement": "Fold-Change (1.0 vs. 0.0)", "setting": "CAPRIN1 200722_s_at", "value": "−1.157"},
      {"measurement": "Fold-Change (1.0 vs. 0.0)", "setting": "CCDC93 209689_at", "value": "−1.133"},
      {"measurement": "Fold-Change (1.0 vs. 0.0)", "setting": "CD84 211190_x_at", "value": "−1.166"},
      {"measurement": "Fold-Change (1.0 vs. 0.0)", "setting": "CDC14B 208022_s_at", "value": "−1.4133"},
      {"measurement": "Fold-Change (1.0 vs. 0.0)", "setting": "CLDN5 204482_at", "value": "−1.364"},
      {"measurement": "Fold-Change (1.0 vs. 0.0)", "setting": "CTDSPL 201905_s_at", "value": "−1.468"},
      {"measurement": "Fold-Change (1.0 vs. 0.0)", "setting": "DLG4 210684_s_at", "value": "−1.187"},
      {"measurement": "Fold-Change (1.0 vs. 0.0)", "setting": "DNM3 209839_at", "value": "−1.8"},
      {"measurement": "Fold-Change (1.0 vs. 0.0)", "setting": "FABP7 205030_at", "value": "−1.176"},
      {"measurement": "Fold-Change (1.0 vs. 0.0)", "setting": "FAM12B 220759_at", "value": "−1.1468"},
      {"measurement": "Fold-Change (1.0 vs. 0.0)", "setting": "FBXO7 201178_at", "value": "−1.135"},
      {"measurement": "Fold-Change (1.0 vs. 0.0)", "setting": "FBXW7 218751_s_at", "value": "−1.112"},
      {"measurement": "Fold-Change (1.0 vs. 0.0)", "setting": "FSTL1 208782_at", "value": "−1.694"},
      {"measurement": "Fold-Change (1.0 vs. 0.0)", "setting": "GNAS 200780_x_at", "value": "−1.158"},
      {"measurement": "Fold-Change (1.0 vs. 0.0)", "setting": "GNAS 200981_x_at", "value": "−1.1585"},
      {"measurement": "Fold-Change (1.0 vs. 0.0)", "setting": "GNAS 212273_x_at", "value": "−1.156"},
      {"measurement": "Fold-Change (1.0 vs. 0.0)", "setting": "GNAS 214548_x_at", "value": "−1.159"},
      {"measurement": "Fold-Change (1.0 vs. 0.0)", "setting": "GNB5 207124_s_at", "value": "−1.1663"},
      {"measurement": "Fold-Change (1.0 vs. 0.0)", "setting": "GNB5 211871_x_at", "value": "−1.159"},
      {"measurement": "Fold-Change (1.0 vs. 0.0)", "setting": "GP1BA 207389_at", "value": "−1.548"},
      {"measurement": "Fold-Change (1.0 vs. 0.0)", "setting": "GPRASP1 204793_at", "value": "−1.16"},
      {"measurement": "Fold-Change (1.0 vs. 0.0)", "setting": "GRAP2 208406_s_at", "value": "−1.394"},
      {"measurement": "Fold-Change (1.0 vs. 0.0)", "setting": "GSPT1 217595_at", "value": "−1.116"},
      {"measurement": "Fold-Change (1.0 vs. 0.0)", "setting": "GUCY1B3 203817_at", "value": "−1.73"},
      {"measurement": "Fold-Change (1.0 vs. 0.0)", "setting": "H2BFS /// HIST1H2BK 208579_x_at", "value": "−1.481"},
      {"measurement": "Fold-Change (1.0 vs. 0.0)", "setting": "HIST1H2AC 215071_s_at", "value": "−1.628"},
      {"measurement": "Fold-Change (1.0 vs. 0.0)", "setting": "HIST1H2AJ 208583_x_at", "value": "−1.278"},
      {"measurement": "Fold-Change (1.0 vs. 0.0)", "setting": "HIST1H2BK 209806_at", "value": "−1.418"},
      {"measurement": "Fold-Change (1.0 vs. 0.0)", "setting": "HLA-E 217456_x_at", "value": "−1.062"},
      {"measurement": "Fold-Change (1.0 vs. 0.0)", "setting": "IGF2BP3 203819_s_at", "value": "−1.72"},
      {"measurement": "Fold-Change (1.0 vs. 0.0)", "setting": "ITGB1 211945_s_at", "value": "−1.17"},
      {"measurement": "Fold-Change (1.0 vs. 0.0)", "setting": "ITGB3 204628_s_at", "value": "−1.579"},
      {"measurement": "Fold-Change (1.0 vs. 0.0)", "setting": "ITGB3 215240_at", "value": "−1.589"},
      {"measurement": "Fold-Change (1.0 vs. 0.0)", "setting": "ITGB5 201125_s_at", "value": "−1.713"},
      {"measurement": "Fold-Change (1.0 vs. 0.0)", "setting": "LIMS1 207198_s_at", "value": "−1.445"},
      {"measurement": "Fold-Change (1.0 vs. 0.0)", "setting": "LIMS1 212687_at", "value": "−1.3332"},
      {"measurement": "Fold-Change (1.0 vs. 0.0)", "setting": "LOC150776 /// SMPD4 207856_s_at", "value": "−1.0672"},
      {"measurement": "Fold-Change (1.0 vs. 0.0)", "setting": "LOC157627 214839_at", "value": 1.326},
      {"measurement": "Fold-Change (1.0 vs. 0.0)", "setting": "LUC7L2 220099_s_at", "value": "−1.155"}
    ]}
  ]
}
